{
  "source": "patent US20090155355A1",
  "about": "“Particles in a capsule” (Multi Formulations Ltd., priority 2007, published 2009)",
  "origin": "cited, not measured here",
  "key": {"[1]": {"conditions": "in vivo"}, "[2]": {"conditions": "combination with acetaminophen or ibuprofen"}, "[3]": {"conditions": "oral, single 400 mg dose, humans"}},
  "note": "Entries after “also recorded” stand apart in the source; their conditions may differ.",
  "data": [
    {"smiles": "CC(=O)Nc1ccc(O)cc1", "note": "[Acetaminophen]", "values": [
      {"measurement": "plasma half-life", "setting": "[1]", "result": "about 2 hrs"},
      {"measurement": "time of peak plasma levels", "setting": "[1]", "result": "0.5 to 2", "unit": "h"}
    ]},
    {"smiles": "Cn1c(=O)c2c(ncn2C)n(C)c1=O", "note": "[caffeine, Caffeine]", "values": [
      {"measurement": "half-life (mean time)", "setting": "highly variable", "result": "about 5 hrs"},
      {"measurement": "time to peak levels", "setting": "in vivo", "result": "about 1 hr"},
      {"measurement": "effect on analgesics", "setting": "[2]", "result": "enhance and prolong the effects of acetaminophen; also recorded: enhance the analgesic effects of ibuprofen"}
    ]},
    {"smiles": "CC(C)Cc1ccc(C(C)C(=O)O)cc1", "note": "(stereo not drawn) [ibuprofen, Ibuprofen]", "values": [
      {"measurement": "time to maximum plasma concentration", "setting": "[3]", "result": "about 1.3 hrs"}
    ]}
  ]
}
